Data from patent publication US12304910B2, “Janus kinase (JAK) family inhibitor, preparation of same, and applications thereof” (JIANGSU VCARE PHARMATECH CO., LTD., priority 2019, dated 2025).
pIC50: −log10 of the molar value.

Columns and labels:
[1] = Liver microsome test (metabolic stability); type: in vitro ADME, human; details: for Remaining % (60 min) / half-life at 1 μmol/L / microsomal CLint at 1 μmol/L: human liver microsomes 0.5 mg/mL protein, compound 1 μmol/L, 37° C.; for half-life at 1 μmol/L / microsomal CLint at 1 μmol/L: pH 7.4; for microsomal CLint at 1 μmol/L: read-out: Clint (μL/min/mg protein)
Protocol: In an incubation system with a total volume of 250 μL, an incubation solution of hum an liver microsomes containing 0.5 mg/mL protein was formulated with a 50 mmol/L PBS buffer (pH=7.4). Before the start of incubation, 2.5 μL of a 100 μmol/L compound to be tested was mixed with 197.5 μL of the above incubation buffer, pre-incubated for 5 min in a 37° C. water bath, and then added with 50 μL of a reducing coenzyme II solution (5 mmol/L) that was likewise pre-incubated for 5 min to start a reaction (in the reaction system, the protein content of liver microsomes from various species was 0.5 g/L, and the final concentration of the compound to be tested was 1 μmol/L), incubated in a 37° C. water bath with shaking, and taken out at 0, 5, 15, 30, and 60 min respectively. 600 μL of a methanol solution of mixed positive and negative internal standards with internal standards Terfenadine (positive ion internal standard, 25 ng/mL) and Tolbutamide (negative ion internal standard, 50 ng/mL) was immediately added to terminate the reaction. The incubation solution after termination was shaken for 2 min and centrifuged (4° C., 16000 r/min) for 10 min, and the supernatant was taken for LC-MS/MS detection to quantitatively analyze the remaining amount of the parent drug. (DMSO=0.1%).
The concentration of the compound at 0 mi incubation was regarded as 100%, and the concentrations at other incubation time points were converted into the remaining percentages. The natural logarithm of the remaining percentage at each time point was linearly regressed against the incubation time, and the slope k was calculated. According to the formula T1/2=−0.693/k, the in vitro half-life was calculated. Clearance in liver microsomes (CLint (μL/min/mg protein)=Ln (2)*1000/T1/2 (min/Protein Conc (mg/ml)).

JAK3 = target: T1, JAK3 (Homo sapiens, UniProt P52333); assay: Kinase activity test (γ33P-ATP isotopic method), JAK3; type: biochemical; details: 33P-ATP 10 μM, 2 h reaction
T1 sequence (P52333 1-1124): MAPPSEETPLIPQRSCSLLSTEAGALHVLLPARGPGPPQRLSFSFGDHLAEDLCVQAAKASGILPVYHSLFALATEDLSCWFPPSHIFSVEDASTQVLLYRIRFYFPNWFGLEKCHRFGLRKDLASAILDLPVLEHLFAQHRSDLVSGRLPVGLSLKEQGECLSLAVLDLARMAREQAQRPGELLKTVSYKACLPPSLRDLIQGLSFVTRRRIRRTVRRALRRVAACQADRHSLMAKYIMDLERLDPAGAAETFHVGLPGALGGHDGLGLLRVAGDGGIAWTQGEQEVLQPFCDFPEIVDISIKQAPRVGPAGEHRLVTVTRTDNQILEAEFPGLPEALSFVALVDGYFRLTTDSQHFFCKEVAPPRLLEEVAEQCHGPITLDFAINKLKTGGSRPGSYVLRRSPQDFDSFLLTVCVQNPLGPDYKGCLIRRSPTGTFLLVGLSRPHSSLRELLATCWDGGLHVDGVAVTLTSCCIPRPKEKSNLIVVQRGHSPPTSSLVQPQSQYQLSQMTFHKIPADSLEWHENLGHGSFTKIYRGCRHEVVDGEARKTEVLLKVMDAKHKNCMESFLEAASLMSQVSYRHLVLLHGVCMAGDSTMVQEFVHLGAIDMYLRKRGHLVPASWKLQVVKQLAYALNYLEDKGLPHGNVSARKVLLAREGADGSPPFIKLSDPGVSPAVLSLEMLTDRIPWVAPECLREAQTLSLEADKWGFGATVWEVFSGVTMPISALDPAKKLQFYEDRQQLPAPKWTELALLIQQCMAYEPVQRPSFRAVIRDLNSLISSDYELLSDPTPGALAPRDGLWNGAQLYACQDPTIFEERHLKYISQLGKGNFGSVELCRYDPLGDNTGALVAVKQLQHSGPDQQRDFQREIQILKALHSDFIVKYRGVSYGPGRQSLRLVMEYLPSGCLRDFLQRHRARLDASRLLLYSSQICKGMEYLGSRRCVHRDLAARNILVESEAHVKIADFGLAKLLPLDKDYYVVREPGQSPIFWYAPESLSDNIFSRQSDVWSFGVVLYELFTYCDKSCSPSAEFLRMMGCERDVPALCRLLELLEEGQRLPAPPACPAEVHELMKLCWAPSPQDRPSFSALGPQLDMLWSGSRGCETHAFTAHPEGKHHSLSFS
Protocol: (§1) This experiment adopted a γ^33p-ATP isotopic test method to test the inhibitory effect of a compound on kinases JAK1, JAK2, JAK3 and TYK2, and obtained a half inhibitory concentration IC50 of the compound for inhibiting activity of the kinase.
(§2) 20 mM 4-hydroxyethylpiperazine ethanesulfonic acid buffer (Hepes, pH 7.5), 10 mM magnesium chloride (MgCl2), 1 mM ethylene glycol diethyl ether diamine tetraacetic acid (EGTA), 0.02% dodecyl polyethylene glycol ether (Brij35), 0.02 mg/ml bovine serum albumin (BSA), 0.1 mM sodium vanadate (Na3VO4), 2 mM dithiothreitol (DTT), and 1% dimethylsulfoxide (DMSO).
(§3) A compound is dissolved with 100% DMSO to a specific concentration, and then subjected to gradient dilution by an automatic sampling device to obtain the samples to be tested with different concentrations (DMSO solutions).
(§4) 3.1 diluting the reaction substrate with the basic reaction buffer;
(§5) 3.2 adding the kinase into the substrate solution, and gently mixing well;
(§6) 3.3 adding, by the automatic sampling system, the 100% DMSO diluted compounds with different concentrations into the kinase solution, and incubating for 20 min at room temperature; and
(§7) 3.4 adding ^33p-ATP (10 μM, 10 μCi/μl) at room temperature to initiate the kinase reaction for a duration of 2 h.
(§8) The unreacted ATP and the reaction-generated […] in the reaction were removed by an ion exchange filtering system, and then the amount of radioactivity of ^33p isotope in the substrate was detected.
(§9) According to the amount of radioactivity, the kinase activities in the systems added with the inhibitors of different concentrations were calculated, to obtain the inhibitors' effects of the compounds of different concentrations on the kinase activity; and fitting was performed with graphpad prism to obtain the inhibitory IC50 values of the compounds.

JAK2 = JAK2 (Homo sapiens, UniProt O60674); assay: Kinase activity test (γ33P-ATP isotopic method), JAK2; type: biochemical; details: 33P-ATP 10 μM, 2 h reaction
Protocol: as §1, §2, §3, §4, §5, §6, §7, §8, §9

[2] = system: DSS induced mouse ulcerative colitis model; assay: Efficacy test in DSS induced mouse ulcerative colitis model; type: in vivo; details: for DAI score on day 8: once a day, mouse DSS model, DAI range 0-4
Excerpt: Mice of 6-7 weeks old were randomly grouped, 6 mice per group. Purified water was provided ad libitum to the mice in a negative control group, and a 2% solution of dextran sulfate sodium (DSS) was provided ad libitum to the mice in other groups, for 7 consecutive days. During the modeling, medication was given according to the groups, once a day for 7 days (the treatment groups and the mouse numbers can be adjusted according to the specific situation). Within 8-10 days later, the DSS-containing water was replaced with purified water, provided ad libitum to the mice. The normal administration continued for 3 days.
From the first day of administration, the general conditions such as metal state, eating, drinking and activities of the mice were respectively observed every day, the mice were weighed every day, and the animal stools were collected, evaluated for their traits and subjected to the occult blood test. The disease activity index (DAI) of experimental animals within 1-10 days were comprehensively assessed.
Scoring was performed according to the above-mentioned standards. The disease activity index (DAI) of each mouse was obtained by summing the scores of weight loss, stool trait and occult blood condition, to evaluate the disease activity. DAI=(score of weight loss+score of stool trait+score of bloody stool)/3, ranging from 0-4.
The experimental data was processed statistically, and the data are all expressed as mean±SD or mean±SME. The SPSS13.0 software was used for statistical analysis, and the differences among the groups were compared with t test (equal variance) or t′ test (unequal variance).

TYK2 = TYK2 (Homo sapiens, UniProt P29597); assay: Kinase activity test (γ33P-ATP isotopic method), TYK2; type: biochemical; details: 33P-ATP 10 μM, 2 h reaction
Protocol: as §1, §2, §3, §4, §5, §6, §7, §8, §9

JAK1 = JAK1 (Homo sapiens, UniProt P23458); assay: Kinase activity test (γ33P-ATP isotopic method), JAK1; type: biochemical; details: for pIC50: 33P-ATP 10 μM, 2 h reaction; for activity in inhibiting the JAK1 kinase compared with Tofacitinib (in words): conclusion from Table 1
Protocol: as §1, §2, §3, §4, §5, §6, §7, §8, §9

Chain of TYK2 (P29597 whole entry): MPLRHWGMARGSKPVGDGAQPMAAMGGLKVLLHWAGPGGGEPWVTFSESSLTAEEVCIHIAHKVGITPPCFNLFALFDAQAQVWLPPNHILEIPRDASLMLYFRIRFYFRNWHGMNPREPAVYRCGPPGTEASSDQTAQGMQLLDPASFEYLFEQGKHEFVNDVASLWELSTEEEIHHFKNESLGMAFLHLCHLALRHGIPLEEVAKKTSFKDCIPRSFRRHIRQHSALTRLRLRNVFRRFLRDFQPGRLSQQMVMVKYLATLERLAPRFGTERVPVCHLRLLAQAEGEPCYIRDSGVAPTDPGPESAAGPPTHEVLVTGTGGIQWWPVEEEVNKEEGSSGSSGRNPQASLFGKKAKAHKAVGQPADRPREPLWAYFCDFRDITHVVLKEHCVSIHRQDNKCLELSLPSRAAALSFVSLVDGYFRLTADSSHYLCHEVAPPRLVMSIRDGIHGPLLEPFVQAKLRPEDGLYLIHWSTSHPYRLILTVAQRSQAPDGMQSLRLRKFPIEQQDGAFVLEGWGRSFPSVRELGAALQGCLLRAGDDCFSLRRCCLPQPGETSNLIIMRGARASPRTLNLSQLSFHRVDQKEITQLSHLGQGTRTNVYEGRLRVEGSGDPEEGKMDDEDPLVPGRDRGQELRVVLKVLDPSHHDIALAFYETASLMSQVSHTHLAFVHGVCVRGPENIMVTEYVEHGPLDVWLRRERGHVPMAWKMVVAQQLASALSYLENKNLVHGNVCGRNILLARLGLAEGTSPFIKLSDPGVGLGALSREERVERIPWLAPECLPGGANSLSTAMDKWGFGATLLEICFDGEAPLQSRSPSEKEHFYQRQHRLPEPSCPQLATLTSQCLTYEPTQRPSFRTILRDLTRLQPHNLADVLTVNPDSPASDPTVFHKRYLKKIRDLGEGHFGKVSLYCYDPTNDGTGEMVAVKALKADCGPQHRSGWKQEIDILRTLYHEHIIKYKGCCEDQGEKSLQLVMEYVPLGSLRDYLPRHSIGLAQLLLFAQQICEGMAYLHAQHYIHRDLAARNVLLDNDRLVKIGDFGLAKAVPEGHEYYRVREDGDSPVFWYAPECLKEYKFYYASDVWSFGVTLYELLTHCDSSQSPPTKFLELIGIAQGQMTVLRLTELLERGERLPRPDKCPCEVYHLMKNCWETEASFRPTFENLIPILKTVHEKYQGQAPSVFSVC
Chain of JAK2 (O60674 whole entry): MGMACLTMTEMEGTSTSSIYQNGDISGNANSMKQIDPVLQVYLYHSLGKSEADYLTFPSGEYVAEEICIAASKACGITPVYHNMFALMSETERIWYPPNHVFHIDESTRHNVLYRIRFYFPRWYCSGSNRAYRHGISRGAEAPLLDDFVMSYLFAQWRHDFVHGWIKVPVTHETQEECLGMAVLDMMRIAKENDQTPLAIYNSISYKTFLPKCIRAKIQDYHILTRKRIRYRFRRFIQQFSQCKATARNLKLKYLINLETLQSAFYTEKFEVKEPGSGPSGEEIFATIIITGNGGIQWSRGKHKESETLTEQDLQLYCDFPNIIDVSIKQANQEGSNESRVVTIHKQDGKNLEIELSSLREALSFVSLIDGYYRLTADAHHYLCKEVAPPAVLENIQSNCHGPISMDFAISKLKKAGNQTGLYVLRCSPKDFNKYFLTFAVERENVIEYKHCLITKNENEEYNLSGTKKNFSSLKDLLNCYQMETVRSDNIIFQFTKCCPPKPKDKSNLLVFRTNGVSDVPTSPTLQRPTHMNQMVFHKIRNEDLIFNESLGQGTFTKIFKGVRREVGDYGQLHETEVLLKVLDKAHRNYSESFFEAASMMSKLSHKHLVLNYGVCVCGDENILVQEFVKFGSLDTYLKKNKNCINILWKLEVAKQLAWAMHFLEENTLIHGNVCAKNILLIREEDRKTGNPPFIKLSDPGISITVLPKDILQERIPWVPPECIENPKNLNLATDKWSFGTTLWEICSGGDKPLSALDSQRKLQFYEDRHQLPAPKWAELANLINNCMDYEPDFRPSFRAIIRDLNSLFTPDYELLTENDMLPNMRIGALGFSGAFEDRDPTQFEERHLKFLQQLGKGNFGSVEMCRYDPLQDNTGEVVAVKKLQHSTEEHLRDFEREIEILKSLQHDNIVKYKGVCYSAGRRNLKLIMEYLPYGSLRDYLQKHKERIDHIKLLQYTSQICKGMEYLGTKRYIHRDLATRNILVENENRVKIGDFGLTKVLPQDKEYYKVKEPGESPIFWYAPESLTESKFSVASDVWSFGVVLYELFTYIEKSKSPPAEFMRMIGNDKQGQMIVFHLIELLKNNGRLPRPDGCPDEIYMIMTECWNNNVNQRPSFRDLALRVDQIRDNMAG
Chain of JAK1 (P23458 whole entry): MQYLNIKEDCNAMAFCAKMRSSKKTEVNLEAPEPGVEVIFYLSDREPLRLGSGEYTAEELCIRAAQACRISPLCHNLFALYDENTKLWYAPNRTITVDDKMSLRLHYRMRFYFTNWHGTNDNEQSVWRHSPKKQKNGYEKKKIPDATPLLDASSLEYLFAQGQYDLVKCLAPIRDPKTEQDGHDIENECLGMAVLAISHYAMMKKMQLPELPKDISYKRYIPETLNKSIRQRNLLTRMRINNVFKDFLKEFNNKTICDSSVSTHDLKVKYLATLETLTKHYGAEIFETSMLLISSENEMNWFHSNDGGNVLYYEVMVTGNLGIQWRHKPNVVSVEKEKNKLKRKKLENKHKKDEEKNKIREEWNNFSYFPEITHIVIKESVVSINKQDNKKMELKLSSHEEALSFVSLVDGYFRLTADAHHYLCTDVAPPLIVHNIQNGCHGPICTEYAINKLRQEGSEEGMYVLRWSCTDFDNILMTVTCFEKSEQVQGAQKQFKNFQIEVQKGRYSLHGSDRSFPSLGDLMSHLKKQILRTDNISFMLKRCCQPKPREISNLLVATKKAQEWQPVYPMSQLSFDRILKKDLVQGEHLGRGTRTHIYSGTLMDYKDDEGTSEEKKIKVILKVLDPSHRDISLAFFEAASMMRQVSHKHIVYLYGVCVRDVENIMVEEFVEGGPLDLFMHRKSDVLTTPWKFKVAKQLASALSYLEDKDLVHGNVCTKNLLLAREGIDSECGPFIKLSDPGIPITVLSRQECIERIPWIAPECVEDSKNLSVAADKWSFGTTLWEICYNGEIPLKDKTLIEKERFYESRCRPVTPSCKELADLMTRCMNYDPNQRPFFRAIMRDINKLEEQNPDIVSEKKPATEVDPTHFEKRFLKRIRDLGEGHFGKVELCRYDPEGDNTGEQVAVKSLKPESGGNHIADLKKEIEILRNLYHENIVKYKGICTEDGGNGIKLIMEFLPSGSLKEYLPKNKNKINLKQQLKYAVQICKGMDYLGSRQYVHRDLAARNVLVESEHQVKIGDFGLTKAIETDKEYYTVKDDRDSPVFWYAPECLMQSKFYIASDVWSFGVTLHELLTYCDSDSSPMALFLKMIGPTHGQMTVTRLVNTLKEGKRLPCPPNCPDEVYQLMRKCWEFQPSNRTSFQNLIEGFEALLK

| Structure (SMILES) | Remaining % (60 min) [1] | metabolic stability in liver microsomes (in words) ([1]; human liver microsomes, conclusion from Table 2) | half-life at 1 μmol/L [1] | microsomal CLint at 1 μmol/L [1] | pIC50 (JAK3) | pIC50 (JAK2) | pIC50 (TYK2) | pIC50 (JAK1) | DAI score on day 8 ([2]; 5 mg/kg group) | DAI score on day 8 ([2]; 15 mg/kg group) | effect on DSS induced enteritis in mice (in words) ([2]; relatively low dose) | activity in inhibiting the JAK1 kinase compared with Tofacitinib (in words) (JAK1) |
| --- | --- | --- | --- | --- | --- | --- | --- | --- | --- | --- | --- | --- |
| N#CCNC(=O)[C@H]1CCCN(Nc2c(C(N)=O)cnc3[nH]ccc23)C1 [Example 7] | – | – | – | – | 9.15 | 8.88 | 8.70 | 9.41 | – | – | – | higher activity in inhibiting the JAK1 kinase than the positive drug control Tofacitinib |
| CC(C)(C)OC(=O)N1CC2CN(Nc3c(C(N)=O)cnc4[nH]ccc34)CC2C1 (stereo not shown) [Example 12] | – | – | – | – | 8.22 | 7.78 | 7.72 | 8.96 | – | – | – | – |
| C[C@@H]1CCN(C(=O)CC#N)C[C@@H]1N(C)c1ncnc2[nH]ccc12 [Tofacitinib, reference compound] | 80.7% | – | 3.3 h | 7 µL/min/mg | – | – | – | – | 3.5 | – | – | – |

More lines, main results first:

| Remaining % (60 min) [1] | metabolic stability in liver microsomes (in words) ([1]; human liver microsomes, conclusion from Table 2) | half-life at 1 μmol/L [1] | microsomal CLint at 1 μmol/L [1] | pIC50 (JAK3) | pIC50 (JAK2) | pIC50 (TYK2) | pIC50 (JAK1) | Structure (SMILES) | DAI score on day 8 ([2]; 5 mg/kg group) | DAI score on day 8 ([2]; 15 mg/kg group) | effect on DSS induced enteritis in mice (in words) ([2]; relatively low dose) | activity in inhibiting the JAK1 kinase compared with Tofacitinib (in words) (JAK1) |
| --- | --- | --- | --- | --- | --- | --- | --- | --- | --- | --- | --- | --- |
| 59.0% | excellent metabolic activity in liver | 1.36 h | 17 µL/min/mg | 8.57 | 8.65 | 8.48 | 9.54 | NC(=O)c1cnc2[nH]ccc2c1NN1CCC[C@H](C(=O)NCC(F)(F)F)C1 [Example 1, (S)-4-(3-(2,2,2-trifluoroethylcarbamoyl)piperidine-1-amino)-1H-7-azaindole-5-carboxamide] | 2.8 | 2 | significant effect in inhibiting the DSS induced enteritis in mice | higher activity in inhibiting the JAK1 kinase than the positive drug control Tofacitinib |
| – | – | – | – | 8.06 | 7.94 | 8.00 | 9.39 | NC(=O)c1cnc2[nH]ccc2c1NN1CCC[C@@H](C(=O)NCC(F)(F)F)C1 [Example 3, (R)-4-(3-(2,2,2-trifluoroethylcarbamoyl)piperidine-1-amino)-1H-7-azaindole-5-carboxamide] | – | – | – | higher activity in inhibiting the JAK1 kinase than the positive drug control Tofacitinib |
| – | – | – | – | 7.80 | 7.26 | 7.46 | 8.92 | CCCNC(=O)[C@H]1CCCN(Nc2c(C(N)=O)cnc3[nH]ccc23)C1 [Example 5, (S)-4-(3-(n-propylcarbamoyl)piperidine-1-amino)-1H-7-azaindole-5-carboxamide] | – | – | – | – |
